Measured values: PubChem BioAssay AID1963966 (Molecular Pharmacology Branch, DTP, NCI, 2024)

Tested on: 935938-334-R-J1-PDC spheroids with HUVEC/MSC, viability
Assay: Anticancer human tumor 935938-334-R-J1-PDC patient-derived small intestine adenocarcinoma cell line growth inhibition [PI3K]
Conditions: for IC50: curve of first compound; for viability, T/C: stronger effect = lower value
In short: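 Tumor cells grown as multi-cell spheroids with HUVEC endothelial cells and MSC fibroblast-like stroma were treated with targeted agents combined with inavolisib, alpelisib, duvelisib or copanlisib. Doses fell in half-log steps from near clinical Cmax, else from 10 microM. Viability was measured.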
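Further: compound exposure lasted seven days before viability was read.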
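Wherever viability, T/C is given: percent of vehicle DMSO treated spheroid viability so 100% = untreated.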

Cn1cnc2c(F)c(Nc3ccc(Br)cc3Cl)c(C(=O)NOCCO)cc21 + Cc1nc(NC(=O)N2CCCC2C(N)=O)sc1-c1ccnc(C(C)(C)C(F)(F)F)c1
IC50 (second compound 0.0316 µM): 37 nM
IC50 (second compound 0.1 µM): 29.7 nM
IC50 (second compound 0.316 µM): 29 nM
IC50 (second compound 1 µM): 11.6 nM
IC50 (second compound 3.16 µM): < 9.49 nM
IC50 (second compound 10 µM): < 9.49 nM
viability, T/C (second compound 0.0316 µM, first compound 0.00949 µM): 62%
viability, T/C (second compound 0.0316 µM, first compound 0.03 µM): 54.8%
viability, T/C (second compound 0.0316 µM, first compound 0.0949 µM): 32.8%
viability, T/C (second compound 0.0316 µM, first compound 0.3 µM): 31.1%
viability, T/C (second compound 0.0316 µM, first compound 0.949 µM): 20.4%
viability, T/C (second compound 0.0316 µM, first compound 3 µM): 22.9%
viability, T/C (second compound 0.1 µM, first compound 0.00949 µM): 73.7%
viability, T/C (second compound 0.1 µM, first compound 0.03 µM): 44.7%
viability, T/C (second compound 0.1 µM, first compound 0.0949 µM): 41.4%
viability, T/C (second compound 0.1 µM, first compound 0.3 µM): 25.8%
viability, T/C (second compound 0.1 µM, first compound 0.949 µM): 23.6%
viability, T/C (second compound 0.1 µM, first compound 3 µM): 17.2%
viability, T/C (second compound 0.316 µM, first compound 0.00949 µM): 62.9%
viability, T/C (second compound 0.316 µM, first compound 0.03 µM): 48.5%
viability, T/C (second compound 0.316 µM, first compound 0.0949 µM): 36.9%
viability, T/C (second compound 0.316 µM, first compound 0.3 µM): 23%
viability, T/C (second compound 0.316 µM, first compound 0.949 µM): 18.6%
viability, T/C (second compound 0.316 µM, first compound 3 µM): 17.3%
viability, T/C (second compound 1 µM, first compound 0.00949 µM): 52.9%
viability, T/C (second compound 1 µM, first compound 0.03 µM): 37%
viability, T/C (second compound 1 µM, first compound 0.0949 µM): 26.4%
viability, T/C (second compound 1 µM, first compound 0.3 µM): 19.4%
viability, T/C (second compound 1 µM, first compound 0.949 µM): 14.2%
viability, T/C (second compound 1 µM, first compound 3 µM): 12.6%
viability, T/C (second compound 3.16 µM, first compound 0.00949 µM): 30.8%
viability, T/C (second compound 3.16 µM, first compound 0.03 µM): 39.6%
viability, T/C (second compound 3.16 µM, first compound 0.0949 µM): 19.6%
viability, T/C (second compound 3.16 µM, first compound 0.3 µM): 17.2%
viability, T/C (second compound 3.16 µM, first compound 0.949 µM): 18.5%
viability, T/C (second compound 3.16 µM, first compound 3 µM): 11.1%
viability, T/C (second compound 10 µM, first compound 0.00949 µM): 28.7%
viability, T/C (second compound 10 µM, first compound 0.03 µM): 20.5%
viability, T/C (second compound 10 µM, first compound 0.0949 µM): 17.2%
viability, T/C (second compound 10 µM, first compound 0.3 µM): 14.8%
viability, T/C (second compound 10 µM, first compound 0.949 µM): 14.8%
viability, T/C (second compound 10 µM, first compound 3 µM): 12.1%

Cn1ncc(Cl)c1-c1cc(C(=O)NC(CN)Cc2cccc(F)c2)sc1Cl (centres undefined) + COc1c(OCCCN2CCOCC2)ccc2c3n(c(=NC(=O)c4cnc(N)nc4)nc12)CCN3
IC50 (second compound 0.00316 µM): 1680 nM
IC50 (second compound 0.01 µM): 1180 nM
IC50 (second compound 0.0316 µM): 1040 nM
IC50 (second compound 0.1 µM): 57.2 nM
IC50 (second compound 0.316 µM): < 31.6 nM
IC50 (second compound 1 µM): < 31.6 nM
viability, T/C (second compound 0.00316 µM, first compound 0.0316 µM): 103%
viability, T/C (second compound 0.00316 µM, first compound 0.1 µM): 114%
viability, T/C (second compound 0.00316 µM, first compound 0.316 µM): 60.6%
viability, T/C (second compound 0.00316 µM, first compound 1 µM): 63.7%
viability, T/C (second compound 0.00316 µM, first compound 3.16 µM): 49.3%
viability, T/C (second compound 0.00316 µM, first compound 10 µM): 32.8%
viability, T/C (second compound 0.01 µM, first compound 0.0316 µM): 78.7%
viability, T/C (second compound 0.01 µM, first compound 0.1 µM): 86.6%
viability, T/C (second compound 0.01 µM, first compound 0.316 µM): 65.5%
viability, T/C (second compound 0.01 µM, first compound 1 µM): 50.9%
viability, T/C (second compound 0.01 µM, first compound 3.16 µM): 41.1%
viability, T/C (second compound 0.01 µM, first compound 10 µM): 28.5%
viability, T/C (second compound 0.0316 µM, first compound 0.0316 µM): 70.7%
viability, T/C (second compound 0.0316 µM, first compound 0.1 µM): 71.3%
viability, T/C (second compound 0.0316 µM, first compound 0.316 µM): 68%
viability, T/C (second compound 0.0316 µM, first compound 1 µM): 50.4%
viability, T/C (second compound 0.0316 µM, first compound 3.16 µM): 30.6%
viability, T/C (second compound 0.0316 µM, first compound 10 µM): 25%
viability, T/C (second compound 0.1 µM, first compound 0.0316 µM): 55%
viability, T/C (second compound 0.1 µM, first compound 0.1 µM): 43%
viability, T/C (second compound 0.1 µM, first compound 0.316 µM): 41.7%
viability, T/C (second compound 0.1 µM, first compound 1 µM): 37.8%
viability, T/C (second compound 0.1 µM, first compound 3.16 µM): 25.3%
viability, T/C (second compound 0.1 µM, first compound 10 µM): 27%
viability, T/C (second compound 0.316 µM, first compound 0.0316 µM): 35.5%
viability, T/C (second compound 0.316 µM, first compound 0.1 µM): 30.2%
viability, T/C (second compound 0.316 µM, first compound 0.316 µM): 30.9%
viability, T/C (second compound 0.316 µM, first compound 1 µM): 28.6%
viability, T/C (second compound 0.316 µM, first compound 3.16 µM): 26.8%
viability, T/C (second compound 0.316 µM, first compound 10 µM): 20.9%
viability, T/C (second compound 1 µM, first compound 0.0316 µM): 33.5%
viability, T/C (second compound 1 µM, first compound 0.1 µM): 26.9%
viability, T/C (second compound 1 µM, first compound 0.316 µM): 34.2%
viability, T/C (second compound 1 µM, first compound 1 µM): 34.5%
viability, T/C (second compound 1 µM, first compound 3.16 µM): 32.6%
viability, T/C (second compound 1 µM, first compound 10 µM): 21.6%
